Measurements reported in US8895502B2, “β2-glycoprotein I peptide inhibitors” (Kansas State University Research Foundation, priority 2010, dated 2014).
“Also recorded” adds a separate entry of the source. Ends that are not written are not given here.

Key:
Type in all cases: in vivo, mouse
[1] = tested on: CD106 (VCAM-1); test: Intestinal IR, VCAM immunohistochemistry; settings: C57Bl/6 mice, peptide prior to IR, data not shown
Description: C57Bl/6 and Rag-1^−/− mice were subjected to ischemia followed by reperfusion similar to previously described studies (Moses, T. et al., J. Leukoc. Biol. 86:971-980 (2009)). Briefly, ketamine (16 mg/kg) and xylazine (80 mg/kg) were used to anesthetize the mice. Buprenorphine (0.06 mg/kg) was then administered for pain. A midline laparotomy was performed to expose the abdominal cavity of the mice, which were then allowed to equilibrate for 30 min. Body temperature was maintained at 37° C. using a water-circulating heat pad. Placing a warm, saline moistened piece of gauze over the abdominal cavity prevented peritoneal desiccation. […] Ischemia was noted by the intestine changing from a pink color to a gray color. After 30 min of ischemia, the clamp was removed and the intestines were allowed to reperfuse for 5, 10, 15, or 120 min. […] Mice treated with the various β2-GPI peptides underwent the same procedure with i.v. administration of the peptides (40 μM) 5 min prior to artery occlusion. Peptides 296, 305, and 296Cys to Ser were dissolved in N. Saline (0.9% NaCl) and injected i.v. in 100-μL volumes. […]
After euthanasia, an additional 2-cm intestinal section from each mouse was immediately snap frozen in O.C.T. freezing medium and 8 μm sections were placed on slides for immunohistochemistry. The C3 deposition and F4/80 expression on the tissue sections were detected by staining with a purified rat-anti-mouse C3 (Hycult Biotechnologies; Plymouth Meeting, Pa.) or F4/80 (eBioscience; San Diego, Calif.) antibody followed by a Texas-red conjugated donkey-anti-rat IgG secondary antibody (Jackson Immunoresearch). CD31 (PECAM-1) and CD106 (VCAM-1) were detected by FITC conjugated rat anti-mouse CD31 or CD106 (Biolegend; San Diego, Calif.) antibodies. […] Images were obtained at room temperature using a Nikon Eclipse 80i microscope equipped with a CoolSnap CF camera (Photometrics) and analyzed using Metavue software (Molecular Devices). The fluorescence was semi-quantitated using Image J software (NIH) using the fluorescent area fraction after setting threshold for each experiment. […]

[2] = tested on: F4/80; test: Intestinal IR, F4/80 macrophage marker immunohistochemistry; design: key to F4/80 Deposition: + indicates significant difference from Sham treated mice; − indicates not significantly different from C57B1/6 sham treated mice; +/− indicates no significant difference from either C57B1/6 mice subjected to either Sham or IR; settings: for F4/80 Deposition: C57Bl/6 mice subjected to IR, peptide 40 μM i.v. 5 min prior to artery occlusion; for expression of the mature macrophage marker (F4/80) after IR: C57Bl/6 mice, peptide prior to IR
Description: (§1) C57Bl/6 and Rag-1^−/− mice were subjected to ischemia followed by reperfusion similar to previously described studies (Moses, T. et al., J. Leukoc. Biol. 86:971-980 (2009)). Briefly, ketamine (16 mg/kg) and xylazine (80 mg/kg) were used to anesthetize the mice. Buprenorphine (0.06 mg/kg) was then administered for pain. A midline laparotomy was performed to expose the abdominal cavity of the mice, which were then allowed to equilibrate for 30 min. Body temperature was maintained at 37° C. using a water-circulating heat pad. Placing a warm, saline moistened piece of gauze over the abdominal cavity prevented peritoneal desiccation. […] Ischemia was noted by the intestine changing from a pink color to a gray color. After 30 min of ischemia, the clamp was removed and the intestines were allowed to reperfuse for 5, 10, 15, or 120 min. […] Mice treated with the various β2-GPI peptides underwent the same procedure with i.v. administration of the peptides (40 μM) 5 min prior to artery occlusion. Peptides 296, 305, and 296Cys to Ser were dissolved in N. Saline (0.9% NaCl) and injected i.v. in 100-μL volumes. Peptides 100 and 181 were dissolved in DMSO prior to diluting 1/100 in N. Saline. Additional mice received peptides prior to Sham treatment.
After euthanasia, an additional 2-cm intestinal section from each mouse was immediately snap frozen in O.C.T. freezing medium and 8 μm sections were placed on slides for immunohistochemistry. The C3 deposition and F4/80 expression on the tissue sections were detected by staining with a purified rat-anti-mouse C3 (Hycult Biotechnologies; Plymouth Meeting, Pa.) or F4/80 (eBioscience; San Diego, Calif.) antibody followed by a Texas-red conjugated donkey-anti-rat IgG secondary antibody (Jackson Immunoresearch). CD31 (PECAM-1) and CD106 (VCAM-1) were detected by FITC conjugated rat anti-mouse CD31 or CD106 (Biolegend; San Diego, Calif.) antibodies. Each experiment contained serial sections stained with the appropriate isotype control antibodies. All slides were mounted with ProLong Gold (Invitrogen). Images were obtained at room temperature using a Nikon Eclipse 80i microscope equipped with a CoolSnap CF camera (Photometrics) and analyzed using Metavue software (Molecular Devices). The fluorescence was semi-quantitated using Image J software (NIH) using the fluorescent area fraction after setting threshold for each experiment. The average of the isotype control was subtracted from each photo.

[3] = tested on: IL-12; test: Intestinal IR, ex vivo IL-12 generation; design: key to IL-12p40 Induction: + indicates significant difference from Sham treated mice; − indicates not significantly different from C57B1/6 sham treated mice; +/− indicates no significant difference from either C57B1/6 mice subjected to either Sham or IR; settings: for IL-12p40 Induction: C57Bl/6 mice subjected to IR, peptide 40 μM i.v. 5 min prior to artery occlusion; for IR induced IL-12 production: C57Bl/6 mice, peptide prior to IR
Description: as §1
(§2) Ex vivo generation of eicosanoids by mid-jejunal tissue was determined. Immediately after collection, a 2-cm intestinal section from each mouse was minced, washed, resuspended in 37° C. oxygenated Tyrode's buffer (Sigma-Aldrich; St. Louis, Mo.), incubated at 37° C. for 20 minutes, and the supernatant collected. PGE2 and LTB4 concentrations were determined using enzyme immunoassay kits (Cayman Chemical; Ann Arbor, Mich.). IL-6 and IL-12 concentrations were determined using a Milliplex MAP immunoassay kit (Millipore) and read on a Milliplex Analyzer (Millipore). All eicosanoid and cytokine concentrations were standardized to the total tissue protein content.
(§3) Total peroxidase, LTB4, PGE2, IL-6, IL-12p40, and IL-12p70 concentrations were determined using the procedures described in Example 1.

[4] = tested on: IL-6; test: Intestinal IR, ex vivo IL-6 generation; design: key to IL-6 Induction: + indicates significant difference from Sham treated mice; − indicates not significantly different from C57B1/6 sham treated mice; +/− indicates no significant difference from either C57B1/6 mice subjected to either Sham or IR; settings: for IL-6 Induction: C57Bl/6 mice subjected to IR, peptide 40 μM i.v. 5 min prior to artery occlusion; for IR induced IL-6 production: C57Bl/6 mice, peptide prior to IR
Description: as §1, §2, §3

[5] = tested on: LTB4; test: Intestinal IR, ex vivo LTB4 generation; design: key to LTB4 Production: + indicates significant difference from Sham treated mice; − indicates not significantly different from C57B1/6 sham treated mice; +/− indicates no significant difference from either C57B1/6 mice subjected to either Sham or IR; settings: for LTB4 Production: C57Bl/6 mice subjected to IR, peptide 40 μM i.v. 5 min prior to artery occlusion; for IR-induced intestinal LTB4 production: C57Bl/6 mice, peptide 40 μM prior to IR
Description: as §1, §2, §3

Row | Substance | expression of adhesion molecule VCAM after IR [1] | F4/80 Deposition [2] | expression of the mature macrophage marker (F4/80) after IR [2] | IL-12p40 Induction [3] | IR induced IL-12 production [3] | IL-6 Induction [4] | IR induced IL-6 production [4] | LTB4 Production [5] | IR-induced intestinal LTB4 production [5]
1 | H-IHFYCKNKEKKCSYTVEAHCRDGTI-OH (cysteine pairing not given here) [peptide 296] | inhibited | − | reduced macrophage to Sham levels | − | attenuated; also recorded: inhibit | − | attenuated; also recorded: inhibit | − | attenuated; also recorded: blocked
2 | H-IHFYSKNKEKKSSYTVEAHSRDGTI-OH [peptide 296Cys-Ser] | inhibited | − | reduced macrophage to Sham levels | − | attenuated; also recorded: inhibit | − | attenuated; also recorded: inhibit | − | attenuated; also recorded: blocked
3 | H-IPSCFKEHSSLAFWKTDASELTPC-NH2 (cysteine pairing not given here) [peptide 322, 18] |  | + | increased in response to IR | + | did not inhibit | + | did not inhibit | + | sustained inflammation similar to untreated mice
4 | H-KKCSYTVEAHCRDGTIEIPSCFKEHS-OH (cysteine pairing not given here) [peptide 305, 10] | inhibited | − | reduced macrophage to Sham levels | − | attenuated; also recorded: inhibited | − | attenuated; also recorded: inhibited | + | did not attenuate
5 | H-KNISFACNPGFFLNG-NH2 [peptide 100, 16, reference compound] |  | + | reduced macrophage to Sham levels | +/− |  | +/− | attenuated IL-6 production | + | sustained inflammation similar to untreated mice
